Data: US20250177566A1, “USE OF CHEMICAL EPIGENETIC MODIFIERS TO MODULATE GENE EXPRESSION” (The University of North Carolina at Chapel Hill, priority 2022, published 2025)
Read-outs that look alike come from different tables or passages of the source.

Tests used:
TRE3G-GFP reporter gene [1] = assay: TRE3G-GFP reporter gene activation in HCT116, dCas9 + MS2-FKBP*x2 (F36V) system, flow cytometry; type: cell-based, human; set-up: fold change, GFP: reference not given here; details: for fold change, GFP (Treated vs Non-Treated): FIG. 1E, 48 hours; for fold change, GFP: 48 hrs
CXCR4 = CXCR4 mRNA activation in HCT116 stably expressing dCas9 and MS2-FKBP*x2, qRT-PCR; type: cell-based, human; details: FIG. 2C; 5 nM; 48 hrs
Procedure: To further explore the activation potential of the SLF*-CEMa, their ability to target endogenous genes was evaluated (FIGS. 2A and 2B). Lentivirus was used to establish a stable HCT116 cell line expressing dCas9 and MS2-FKBP*x2 constructs, selecting for cells with antibiotic resistance. […] All CEMs were screened for their ability to activate the CXCR4 gene at 5 nM (FIG. 2C). RNA extraction and quantitative RT-PCR (qRT-PCR) were performed after 48 hours of CEM treatment.
To determine the optimal treatment concentration of the SLF*-CEMa molecules in this context, HCT116 cells were treated with 1 nM, 5 nM, 25 nM, and 50 nM of CEM203, CEM207, or CEM87. […] After 48 hours, RNA extraction followed by qRT-PCR was performed to evaluate the change in mRNA expression of CXCR4 (FIG. 2D). […] To directly compare this induced activation to other CRISPR-Cas9-based epigenetic activators, dCas9-VPR and dCas9-p300 constructs were virally infected into HCT116 cells and CXCR4 activation assessed in a similar fashion (FIGS. 2A and 2B).
To determine the time at which SLF*-CEMa most effectively induces gene activation, CXCR4 gene expression changes over time were investigated in dCas9 and MS2-FKBP*x2 stably infected HCT116 cells. Cells were treated with either vehicle, […] (FIG. 3A). RNA extraction and qRT-PCR were performed at 12, 24, 48, 72, and 96 hrs time points (FIG. 3B).
To investigate if endogenous gene activation triggered by the SLF*-CEMa compounds is also reversible, HCT116 cells were treated with CEM203 (50 nM) or CEM207 (25 nM) for 24 hours after transfecting CXCR4 gRNA, and then the CEMs were removed by media exchange at various time points. […] Likewise, it was investigated whether treatment with excess AP1867 could further reverse gene activation, potentially in a more robust fashion than with washout alone if there is any remaining intracellular SLF*-CEMa. To test this, after 24 hours of SLF*-CEMa treatment, a media exchange containing 20 μM AP1867 was performed (FIGS. 3C and 3D).
RNA extraction and qRT-PCR. All RNA extraction experiments were conducted in 12-well plate format. Culturing medium was removed, and cells were washed with 1×PBS, following with 0.05% trypsin to disassociate. After being quenched by medium and centrifuged, cells were washed with 1×PBS, and the RNA extraction was performed by using RNeasy Plus Mini kit (Qiagen, 74134). RT-qPCR was conducted by using RNA-to CT 1-step kit (Thermo Fisher Scientific, 4389986). The primer sets used in quantifying each gene can be found in Table 4.

TRE3G-GFP reporter gene [2] = details: WT FKBP (MS2-FKBPx2), 48 hrs
Procedure: HCT116 cells were transfected with TRE3G-GFP, dCas9, MS2-FKPB*x2, and TRE3G gRNA or NT gRNA. After 48 hrs of 10 nM SLF*-CEMa treatment, flow cytometry was performed and mean fluorescent value was collected. […] TRE3G-GFP, dCas9, MS2-FKBP*2, TRE3G gRNA or NT gRNA were transfected into HCT116 cells. The media was changed to media with 5 nM CEM207 together with 0 nM, 50 nM, 500 nM or 5000 nM of AP1867, respectively. After 48 hrs chemical exposure, flow cytometry was performed and the mean fluorescent value was measured in each group of cells. […] FIGS. 5D and 5E are dose curves of CEMa molecules activating the GFP reporter gene in HCT116 cells using WT FKBP and dCas9 as DNA binding module. HCT116 cells were transfected with dCas9, MS2-FKBPx2, TRE3G-GFP constructs, along with TRE3G gRNA or NT gRNA. Cells were treated with different concentrations of CEMa molecules for 48 hrs before flow cytometry was conducted. […] Error bars represent the standard deviation.
To better understand the activity of SLF*-CEMa in the WT FKBP-based GFP reporter assay, a similar dose-response assay was conducted in HCT116 cells transfected with dCas9 and MS2-FKBPx2 (FIGS. 1D and 1E).
Flow cytometry. All flow cytometry experiments were performed with Attune Nxt as previously described. […] Significance was determined by Student's t-test.

CC[C@H](C(=O)N1CCCC[C@H]1C(=O)O[C@H](CCc1ccc(OC)c(OC)c1)c1cccc(OCC(=O)NCCOCCOCCOCCNC(=O)C[C@@H]2N=C(c3ccc(Cl)cc3)c3cc(OC)ccc3-n3c(C)nnc32)c1)c1cc(OC)c(OC)c(OC)c1 [CEM202, (1R)-1-(3-((17-((4S)-6-(4-Chlorophenyl)-8-methoxy-1-methyl-4/I-benzo[f][1,2,4]triazolo[4,3-a][1,4]diazepin-4-yl)-2,16-dioxo-6,9,12-trioxa-3,15-diazaheptadecyl)oxy)phenyl)-3-(3,4-dimethoxyphenyl) propyl (2S)-1-((S)-2-(3,4,5-trimethoxyphenyl)butanoyl) piperidine-2-carboxylate]
fold change, GFP (Treated vs Non-Treated) (TRE3G-GFP reporter gene [1]; TRE3G gRNA, 0.25 nM): 1.1 fold
fold change, GFP (Treated vs Non-Treated) (TRE3G-GFP reporter gene [1]; TRE3G gRNA, 0.5 nM): 1.3 fold
fold change, GFP (Treated vs Non-Treated) (TRE3G-GFP reporter gene [1]; TRE3G gRNA, 0.75 nM): 1.3 fold
fold change, GFP (Treated vs Non-Treated) (TRE3G-GFP reporter gene [1]; TRE3G gRNA, 1 nM): 1.5 fold
fold change, GFP (Treated vs Non-Treated) (TRE3G-GFP reporter gene [1]; TRE3G gRNA, 2.5 nM): 2.8 fold
fold change, GFP (Treated vs Non-Treated) (TRE3G-GFP reporter gene [1]; TRE3G gRNA, 5 nM): 12.5 fold
fold change, GFP (Treated vs Non-Treated) (TRE3G-GFP reporter gene [1]; TRE3G gRNA, 7.5 nM): 13.9 fold
fold change, GFP (Treated vs Non-Treated) (TRE3G-GFP reporter gene [1]; TRE3G gRNA, 10 nM): 15.0 fold
fold change, GFP (Treated vs Non-Treated) (TRE3G-GFP reporter gene [1]; TRE3G gRNA, 25 nM): 22.0 fold
fold change, GFP (Treated vs Non-Treated) (TRE3G-GFP reporter gene [1]; TRE3G gRNA, 50 nM): 28.8 fold
fold change, GFP (Treated vs Non-Treated) (TRE3G-GFP reporter gene [1]; TRE3G gRNA, 75 nM): 27.1 fold
fold change, GFP (Treated vs Non-Treated) (TRE3G-GFP reporter gene [1]; TRE3G gRNA, 100 nM): 25.5 fold
fold change, GFP (TRE3G-GFP reporter gene [1]; FIG. 5A, NT gRNA, 10 nM): 0.5 fold
fold change, GFP (TRE3G-GFP reporter gene [1]; FIG. 5A, TRE3G gRNA, 10 nM): 8.4 fold
fold change, GFP (TRE3G-GFP reporter gene [1]; FIG. 5C, NT gRNA, 0.25 nM): 1.0 fold
fold change, GFP (TRE3G-GFP reporter gene [1]; FIG. 5C, NT gRNA, 0.5 nM): 1.0 fold
fold change, GFP (TRE3G-GFP reporter gene [1]; FIG. 5C, NT gRNA, 0.75 nM): 1.1 fold
fold change, GFP (TRE3G-GFP reporter gene [1]; FIG. 5C, NT gRNA, 1 nM): 1.0 fold
fold change, GFP (TRE3G-GFP reporter gene [1]; FIG. 5C, NT gRNA, 2.5 nM): 1.0 fold
fold change, GFP (TRE3G-GFP reporter gene [1]; FIG. 5C, NT gRNA, 5 nM): 1.1 fold
fold change, GFP (TRE3G-GFP reporter gene [1]; FIG. 5C, NT gRNA, 7.5 nM): 1.1 fold
fold change, GFP (TRE3G-GFP reporter gene [1]; FIG. 5C, NT gRNA, 10 nM): 1.2 fold
fold change, GFP (TRE3G-GFP reporter gene [1]; FIG. 5C, NT gRNA, 25 nM): 1.3 fold
fold change, GFP (TRE3G-GFP reporter gene [1]; FIG. 5C, NT gRNA, 50 nM): 1.4 fold
fold change, GFP (TRE3G-GFP reporter gene [1]; FIG. 5C, NT gRNA, 75 nM): 1.4 fold
fold change, GFP (TRE3G-GFP reporter gene [1]; FIG. 5C, NT gRNA, 100 nM): 1.4 fold
fold change, CXCR4 mRNA (Treated vs Non-Treated) (CXCR4): 3.5 fold
fold change, GFP (Treated vs Non-Treated) (TRE3G-GFP reporter gene [2]; FIG. 5D, 10 nM): 0.9 fold
fold change, GFP (Treated vs Non-Treated) (TRE3G-GFP reporter gene [2]; FIG. 5D, 25 nM): 1.0 fold
fold change, GFP (Treated vs Non-Treated) (TRE3G-GFP reporter gene [2]; FIG. 5D, 50 nM): 1.1 fold
fold change, GFP (Treated vs Non-Treated) (TRE3G-GFP reporter gene [2]; FIG. 5D, 100 nM): 5.3 fold
fold change, GFP (Treated vs Non-Treated) (TRE3G-GFP reporter gene [2]; FIG. 5D, 200 nM): 11.6 fold
fold change, GFP (Treated vs Non-Treated) (TRE3G-GFP reporter gene [2]; FIG. 5D, 400 nM): 17.5 fold
fold change, GFP (Treated vs Non-Treated) (TRE3G-GFP reporter gene [2]; FIG. 5E, 10 nM): 0.9 fold
fold change, GFP (Treated vs Non-Treated) (TRE3G-GFP reporter gene [2]; FIG. 5E, 25 nM): 0.9 fold
fold change, GFP (Treated vs Non-Treated) (TRE3G-GFP reporter gene [2]; FIG. 5E, 50 nM): 1.0 fold
fold change, GFP (Treated vs Non-Treated) (TRE3G-GFP reporter gene [2]; FIG. 5E, 100 nM): 1.0 fold
fold change, GFP (Treated vs Non-Treated) (TRE3G-GFP reporter gene [2]; FIG. 5E, 200 nM): 1.0 fold
fold change, GFP (Treated vs Non-Treated) (TRE3G-GFP reporter gene [2]; FIG. 5E, 400 nM): 1.0 fold

CC[C@H](C(=O)N1CCCC[C@H]1C(=O)O[C@H](CCc1ccc(OC)c(OC)c1)c1cccc(OCC(=O)NCCOCCOCCOCCOCCOCCNC(=O)C[C@@H]2N=C(c3ccc(Cl)cc3)c3c(sc(C)c3C)-n3c(C)nnc32)c1)c1cc(OC)c(OC)c(OC)c1 [CEM210, (R)-1-(3-((23-((S)-4-(4-Chlorophenyl)-2,3,9-trimethyl-6H-thieno[3,2-f][1,2,4]triazolo[4,3-a][1,4]diazepin-6-yl)-2,22-dioxo-6,9,12,15,18-pentaoxa-3,21-diazatricosyl)oxy)phenyl)-3-(3,4-dimethoxyphenyl) propyl(S)-1-((S)-2-(3,4,5-trimethoxyphenyl)butanoyl) piperidine-2-carboxylate]
fold change, GFP (TRE3G-GFP reporter gene [1]; FIG. 5A, NT gRNA, 10 nM): 0.4 fold
fold change, GFP (TRE3G-GFP reporter gene [1]; FIG. 5A, TRE3G gRNA, 10 nM): 8.5 fold
fold change, CXCR4 mRNA (Treated vs Non-Treated) (CXCR4): 12.0 fold
